Like-named read-outs stand apart in the source and are kept apart here.
What was measured:
HUMAN PROTEINASE 3 = molecular target: T1, HUMAN PROTEINASE 3 (Homo sapiens, UniProt P24158); test: Inhibition of PR3 catalyzed hydrolysis of MeO-Succ-AAPV-pNA; assay type: biochemical; details: 45 mM TES pH 7.5, 450 mM NaCl, 10% DMSO; 0.2 mM substrate (TABLE 2); read-out: SORC (second order rate constant, kobs/I)
T1 sequence (P24158 28-256): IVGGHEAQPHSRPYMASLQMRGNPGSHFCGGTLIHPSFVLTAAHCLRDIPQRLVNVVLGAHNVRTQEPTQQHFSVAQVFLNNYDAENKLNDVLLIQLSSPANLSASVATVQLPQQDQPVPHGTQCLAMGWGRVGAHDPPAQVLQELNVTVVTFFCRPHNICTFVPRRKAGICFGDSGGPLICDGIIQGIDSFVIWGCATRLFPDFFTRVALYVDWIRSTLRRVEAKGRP
Procedure: The PR3 catalyzed hydrolysis of MeO-Succ-AAPV-pNA was measured in a spectrophotometer monitoring absorbance at 410 n,m. The enzymatic activity was determined in 45 mM TES at pH 7.5, 450 mM NaCl and 10% DMSO. The data were fit by non-linear regression to equation 1 to obtain the initial rates. The nonlinear progress curves observed with time dependent inhibitors were fit to equation 2 to obtain the first order rate constant Kobs. Results were expressed as kobs/I which is the second order rate constant (SORC) in per mole per second for inactivation of the enzyme.
EQN 2 Y=vs *X+[(vo -vs) (1-e^(-K.sbsp.o^*X))/Ko
Kinetic constants for the inhibition of PR3 catalyzed hydrolysis of 0.2 mM MoO-succ-AAPV-pNA were determined by varying the concentration of inhibitor present in the reaction vessel.

[1] = Extended storage of the L-malic acid salt at rt; assay type: physicochemical
Text: NMR (CDCl3 δ from TMS): 0.9-1.0 (m, 6H), 1.0-1.1 (m, 6H), 1.2-1.4 (m, 2H), 1.6-1.95(2 m's, 6H), 2.30 (s, 3H), 2.6-2.9 (2 m's, 4H), 2.92 and 2.94 (2 s, 3H), 3.2-3.4 (m, 2H), 3.52 (br t, 2H, J=8 Hz), 4.5-4.8 (m, 3H), 5.11 (br s, 1H), 7.04 (2 d's, 1H, J=8Hz), 7.13 (br S, 4H).
The material prepared as described above in Example 20, Step A was hydrogenated as described in Example 19, Step B to afford the L-malic acid salt of 2-(S)-[2-[[2-aminoethyl]-ethylamino]-2-oxoethoxy]-3,3-diethyl-N-[1-(R)-(4- methylphenyl)butyl]-4-oxo-1-azetidinecarboxamide as an oil. […] This process could be evaluated by HPLC analysis.

[2] = molecular target: T2, Human Polymorphonuclear Leukocyte Elastase (Homo sapiens, UniProt P08246); test: Inhibition of human polymorphonuclear leukocyte elastase via hydrolysis of Boc-AAPAN or Boc-AAPVN; assay type: biochemical; details: pH 7.5, Formula A, M n-propyl, read-out: kobs /[I]
T2 construct: Crude extract of human polymorphonuclear leukocytes (PMN) containing elastase activity; from tissue; host or cells: human polymorphonuclear leukocytes (crude extract)
T2 sequence (P08246 30-267): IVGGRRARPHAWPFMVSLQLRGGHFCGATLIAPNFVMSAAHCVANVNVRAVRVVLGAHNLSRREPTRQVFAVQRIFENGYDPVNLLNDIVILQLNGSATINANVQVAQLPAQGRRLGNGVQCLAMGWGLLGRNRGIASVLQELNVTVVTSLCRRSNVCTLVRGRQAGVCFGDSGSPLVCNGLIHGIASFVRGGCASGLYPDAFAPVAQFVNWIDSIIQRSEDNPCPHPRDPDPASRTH
Procedure: Enzyme Assays for the Inhibition of Human Polymorphonuclear Leukocyte
Elastase Via Hydrolysis of
N-t-Boc-alanyl-alanyl-prolylalanine-p-nitroanilide (Boc-AAPAN) or
N-t-Boc-alanyl-prolylvaline-p-nitroanilide (Boc-AAPVN) Reagent:
0.05M TES (N-tris[hydroxymethyl]methyl-2-amino-ethanesulfonic acid) Buffer, pH 7.5.
0.2 mM Boc-AAPAN or Boc-AAPVN.
To prepare substrate, the solid was first dissolved in 10.0 ml DMSO. Buffer at pH 7.5 was then added to a final volume of 100 ml.
Crude extract of human polymorphonuclear leukocytes (PMN) containing elastase activity.
Inhibitors (azetidinones) to be tested dissolved in DMSO just before use.
To 1.0 ml of 0.2 mM Boc-AAPAN in a cuvette, 0.01-0.1 ml of DMSO with or without inhibitor was added. After mixing, a measurement was taken at 410 mμ to detect any spontaneous hydrolysis due to presence of test compound. 0.05 Milliliters of PMN extract was then added and the ΔOD/min at 410 mμ was measured and recorded. Beckman model 35 spectrophotometer was used.
Results in Table I were reported as ID50, effective dosage in micrograms per milliliter (μg/ml) for 50% inhibition of the enzyme activity 2 minutes after zero time.
Results were also expressed as Ki, the micromolar concentration of the inhibitor (μM) giving 50% of the control enzyme activity; or as ^k obs/I which is the second order rate constant in per mole per second for inactivation of the enzyme.
The elastase activity in the crude PMN extract may vary from one preparation to another. A control of each new batch is run, and the volume added in the assay procedure is adjusted according to activity.

[3] = second order rate constant for inactivation, R2 4-methyl (TABLE 1)

Question: For `CCC[C@@H](NC(=O)N1C(=O)C(CC)(CC)[C@@H]1OCC(=O)N(CC)CCN(C)CCOC)c1ccc(C)cc1` [2-(S)-[2-[[2-((2-Methoxyethyl)-methylamino)ethyl]ethylamino]-2-oxoethoxy]-3,3-diethyl-N-[1-(R)-(4methylphenyl)butyl]-4-oxo-1-azetidinecarboxamide], which kinact/KI (HUMAN PROTEINASE 3) is on record?
Answer: 13700 M⁻¹ s⁻¹

Question: With `CCC[C@@H](NC(=O)N1C(=O)C(CC)(CC)[C@@H]1OCC(=O)N(CC)CCNC)c1ccc(C)cc1` [Example 19, 2-(S)-[2-[[2-Methylaminoethyl]-ethylamino]-2-oxoethoxy]-3,3-diethyl-N-[1-(R)-(4-methylphenyl)butyl]-4-oxo-1-azetidinecarboxamide] as the compound, how does the stability upon storage [1] read?
Answer: rearranges to an isomeric equilibrium mixture

Question: Which stability upon storage [1] does the source give for `CCC[C@@H](NC(=O)N1C(=O)C(CC)(CC)[C@@H]1OCC(=O)N(CC)CCN)c1ccc(C)cc1` [Example 20, 2-(S)-[2-[[2-Aminoethyl]-ethylamino]-2-oxoethoxy]-3,3-diethyl-N-[1-(R)-(4-methylphenyl)butyl]-4-oxo-1-azetidinecarboxamide] here?
Answer: rearranged upon storage to an equilibrium mixture of isomers

Question: For `CCC[C@@H](NC(=O)N1C(=O)C(CC)(CC)[C@@H]1OCC(=O)N1CCN(C)CC1)c1ccc(C)cc1` [R2=4-Me; R5=H; Z=--Me, 2-(S)-[2-[2-(4-Methyl)piperazin-1-yl]-2-oxoethoxy]-3,-3-diethyl-N-[1-(R)-(4-methylphenyl)-butyl]4-oxo-1-azetidinecarboxamide], which kinact/KI ([2]; second order rate constant, R4 piperazine amide with substituent Z) is on record?
Answer: 150000 M⁻¹ s⁻¹

Question: And the kinact/KI (HUMAN PROTEINASE 3)?
Answer: 14800 M⁻¹ s⁻¹

Question: Which kinact/KI [2, 3] does the source give for `CCC[C@@H](NC(=O)N1C(=O)C(CC)(CC)[C@@H]1OCC(=O)N(CC)CCN(C)C)c1ccc(C)cc1` [Y=N(Et)CH2 CH2; R5=H; R7=Me; R8=Me, 2-(S)-[2-[[2-(Dimethylamino)ethyl]ethylamino]-2-oxoethoxy]-3,3-diethyl-N-[1-(R)-(4-methylphenyl)butyl]-4-oxo-1-azetidinecarboxamide] here?
Answer: 120000 M⁻¹ s⁻¹

Question: And the kinact/KI (HUMAN PROTEINASE 3)?
Answer: 7900 M⁻¹ s⁻¹

Question: For `CCC[C@@H](NC(=O)N1C(=O)C(CC)(CC)[C@@H]1OCC(=O)N(C)CCN(C(C)C)C(C)C)c1ccc(C)cc1` [Y=N(Me)CH2 CH2; R5=H; R7=iPr; R8=iPr, 2-(S)-[2-[[2-(Diisopropylamino)ethyl]methylamino]-2-oxoethoxy]-3,3-diethyl-N-[1-(R)-(4-methylphenyl)butyl]-4-oxo-1-azetidinecarboxamide], which kinact/KI [2, 3] is on record?
Answer: 115000 M⁻¹ s⁻¹

Question: With `CCC[C@@H](NC(=O)N1C(=O)C(CC)(CC)[C@@H]1O[C@@H](C)C(=O)N(C)CCN(CC)CC)c1ccc(C)cc1` [Y=N(Me)CH2 CH2; R5=Me; R7=Et; R8=Et, 2-(S)-[2-[[2-(Diethylamino)ethyl]methylamino]-2-oxo-(1-(S)-methyl)ethoxy]-3,3-diethyl-N-[1-(R)-(4-methylphenyl)butyl]-4-oxo-1-azetidinecarboxamide] as the compound, how does the kinact/KI [2, 3] read?
Answer: 1.8e+06 M⁻¹ s⁻¹

Question: With `CCC[C@@H](NC(=O)N1C(=O)C(CC)(CC)[C@@H]1O[C@@H](C)C(=O)N(C)CCN(C)C)c1ccc(C)cc1` [Y=N(Me)CH2 CH2; R5=Me; R7=Me; R8=Me, 2-(S)-[2-[[2-(Dimethylamino)ethyl]methylamino]-2-oxo-(1-(S)-methyl)ethoxy]-3,3-diethyl-N-[1-(R)-(4-methylphenyl)butyl]-4-oxo-l-azetidinecarboxamide] as the compound, how does the kinact/KI [2, 3] read?
Answer: 1.65e+06 M⁻¹ s⁻¹

Question: Which kinact/KI [2, 3] does the source give for `CCC[C@@H](NC(=O)N1C(=O)C(CC)(CC)[C@@H]1OCC(=O)N(CCC)CCN(CC)CC)c1ccc(C)cc1` [Y=N(Pr)CH2 CH2; R5=H; R7=Et; R8=Et, 2-(S)-[2-[[2-(Diethylamino)ethyl]propylamino]-2-oxoethoxy]-3,3-diethyl-N-[1-(R)-(4-methylphenyl)butyl]-4-oxo-1-azetidinecarboxamide] here?
Answer: 170000 M⁻¹ s⁻¹

Question: With `CCC[C@@H](NC(=O)N1C(=O)C(CC)(CC)[C@@H]1OCC(=O)N(CCN(CC)CC)C(C)C)c1ccc(C)cc1` [Y=N(iPr)CH2 CH2; R5=H; R7=Et; R8=Et] as the compound, how does the kinact/KI [2, 3] read?
Answer: 175000 M⁻¹ s⁻¹

Question: Which kinact/KI [2, 3] does the source give for `CCC[C@@H](NC(=O)N1C(=O)C(CC)(CC)[C@@H]1OCC(=O)N(CCN(C)C)C(C)C)c1ccc(C)cc1` [Y=N(iPr)CH2 CH2; R5=H; R7=Me; R8=Me] here?
Answer: 175000 M⁻¹ s⁻¹

Question: With `CCC[C@@H](NC(=O)N1C(=O)C(CC)(CC)[C@@H]1OCC(=O)NCCN1CCOCC1)c1ccc(C)cc1` [Y=NHCH2 CH2; R5=H; R7 R8=CH2 CH2OCH2 CH2, 2-(S)-[2-[[2-(morpholin-1-yl)ethyl]amino]-2-oxoethoxy]-3,3-diethyl-N-[1-(R)-(4-methylphenyl)butyl]-4-oxo-1-azetidinecarboxamide] as the compound, how does the kinact/KI [2, 3] read?
Answer: 115000 M⁻¹ s⁻¹

Question: For `CCC[C@@H](NC(=O)N1C(=O)C(CC)(CC)[C@@H]1OCC(=O)NCCN(CC)CC)c1ccc(C)cc1` [Y=NHCH2 CH2; R5=H; R7=Et; R8=Et, 2-(S)-[2-[[2-(Diethylamino)ethyl]amino]-2-oxoethoxy]-3,3-diethyl-N-[1-(R)-(4-methylphenyl)butyl]-4-oxo-1-azetidinecarboxamide], which kinact/KI [2, 3] is on record?
Answer: 220000 M⁻¹ s⁻¹

Question: Which kinact/KI [2, 3] does the source give for `CCC[C@@H](NC(=O)N1C(=O)C(CC)(CC)[C@@H]1OCC(=O)NCCN(C(C)C)C(C)C)c1ccc(C)cc1` [Y=NHCH2 CH2; R5=H; R7=iPr; R8=iPr, 2-(S)-[2-[[2-(Diisopropylamino)ethyl]amino]-2-oxoethoxy]-3,3-diethyl-N-[1-(R)-(4-methylphenyl)butyl]-4-oxo-1-azetidinecarboxamide] here?
Answer: 105000 M⁻¹ s⁻¹

Question: With `CCC[C@@H](NC(=O)N1C(=O)C(CC)(CC)[C@@H]1O[C@@H](C)C(=O)NCCN(CC)CC)c1ccc(C)cc1` [Y=NHCH2 CH2; R5=Me; R7=Et; R8=Et, 2-(S)-[2-[[2-(Diethylamino)ethyl]amino]-2-oxo-(1-(S)-methyl)ethoxy]-3,3-diethyl-N-[1-(R)-(4-methyl-phenyl)butyl]-4-oxo-l-azetidinecarboxamide] as the compound, how does the kinact/KI [2, 3] read?
Answer: 1.35e+06 M⁻¹ s⁻¹

Question: Which kinact/KI [2, 3] does the source give for `CCC[C@@H](NC(=O)N1C(=O)C(CC)(CC)[C@@H]1O[C@@H](C)C(=O)NCCN(C)C)c1ccc(C)cc1` [Y=NHCH2 CH2; R5=Me; R7=Me; R8=Me, 2-(S)-[2-[[2-(Dimethylamino)ethyl]amino]-2-oxo-(1-(S)-methyl)ethoxy]-3,3-diethyl-N-[1-(R)-(4-methylphenyl)butyl]-4-oxo-1-azetidinecarboxamide] here?
Answer: 1.04e+06 M⁻¹ s⁻¹

Question: With `CCC[C@@H](NC(=O)N1C(=O)C(CC)(CC)[C@@H]1OCC(=O)N(CC)CC)c1ccc(C)cc1` [Y=co-valent bond; R5=H; R7=Et; R8=Et] as the compound, how does the kinact/KI [2, 3] read?
Answer: 315000 M⁻¹ s⁻¹

Question: For `CCC[C@@H](NC(=O)N1C(=O)C(CC)(CC)[C@@H]1OCC(=O)N(C)C)c1ccc(C)cc1` [Y=co-valent bond; R5=H; R7=Me; R8=Me], which kinact/KI [2, 3] is on record?
Answer: 125000 M⁻¹ s⁻¹
